Series [1] relates to delta-E Torsin1a localization in Flp-In T-REx 293 cells expressing EGFP-delta-E Torsin1a. The series can be described thus: delta-E Torsin1a mis-localization assay (high-content imaging, % cells with EGFP puncta). In kind it is cell-based, human. The note with it: delta-E cell line; for percentage of cells with punctate EGFP-Torsin1a signal: MG132 10 μM, PBA 20 mM. The procedure:
To limit variation in expression levels associated with random integration or transient expression, single copies of either WT or delta-E human TOR1A cDNAs with N-terminal EGFP fusions were inserted at the FRT site in Flp-In™ T-Rex™ 293 cells (Thermo Fisher Scientific #R780-07) via flippase recombinase-mediated cassette exchange according to the manufacturer's recommended protocols.
The cells were maintained at 37° C./5% CO2. All experiments were performed on cells with fewer than 5 passages.
Torsin1a expression was also controlled by tetracycline induction to avoid selective pressure modifying the cellular phenotypes. […] The mutant phenotype was measured as the percentage of cells with one or more EGFP puncta using automated high-content imaging analysis (see infra).
The image analysis algorithm was developed using the Cellomics ArrayScan V CompartmentAnalysisV2 protocol. Hoechst's nuclear staining (Ch1: excitation 350 nm; emission 461 nm) was used for focusing and for cell identification by nuclear size, shape, and intensity. […] Detected cells were gated according to nuclear area, length-to-width ratio, and perimeter-to-area ratio. For the purpose of analysis, cell bodies were defined by a radius of 10 μm from the outer edge of the defined nucleus. Overlapping cells were automatically segmented according to the Cellomics ArrayScanV CompartmentAnalysisV2 object segmentation feature. EGFP fluorescence (Ch2: excitation 488 nm; emission 509 nm) was used for puncta detection. […] Torsin1a puncta were identified using the spot detection feature of the Compartmental AnalysisV2 protocol. The percentage of cells containing one or more puncta was used as the primary metric in this assay.
(§1) In order to test this model directly, the delta-E Torsin1a cell line was treated with compounds targeting the eIF2-alpha signaling pathway (FIG. 2). […] The following day, serial drug dilutions were prepared at 2× final concentration in assay media containing 10 μg/mL tetracycline and 30 μL of the drug/tetracycline mixture was added to the appropriate wells, while control wells received 30 μL of assay media alone or assay media+10 μg/mL tetracycline (final tetracycline concentration for all wells except negative controls: 5 μg/mL). Cells were then incubated at 37° C./5% CO^2 for 48 hours and fixed, permeabilized, Hoechst stained, and imaged as described above. The range of the Torsin1a localization effect was normalized to the percentage of cells with puncta in vehicle-treated delta-E cell line as the maximum and that in WT cell line as the minimum (FIG. 2, panels c-h). Cell count and EGFP-Torsin1a expression were normalized to their respective values in the vehicle-treated delta-E cell line as the maximum. All dose response data are the average of 4 independent experiments per dose. Untreated control data used for normalization are the average of 24 independent experiments.

The subject of series [2] is WT Torsin1a localization in Flp-In T-REx 293 cells expressing EGFP-WT Torsin1a. The series can be described thus: Torsin1a localization assay in WT Torsin1a-expressing assay cell line. Format: cell-based, human. The note with it: WT cell line; MG132 10 μM, PBA 20 mM. The text has this: To develop an assay capable of detecting conditions that correct a dystonia cellular phenotype, two human cell lines were generated that stably expressed EGFP-tagged human wild-type Torsin 1A, or delta-E Torsin1a, from a single cDNA copy integrated at a defined genomic site (FIG. 1, panel 1).
To limit variation in expression levels associated with random integration or transient expression, single copies of either WT or delta-E human TOR1A cDNAs with N-terminal EGFP fusions were inserted at the FRT site in Flp-In™ T-Rex™ 293 cells (Thermo Fisher Scientific #R780-07) via flippase recombinase-mediated cassette exchange according to the manufacturer's recommended protocols. This system includes an inducible expression feature (TetON) that avoids selective pressure for potential toxic effects of chronic expression of mutant proteins (FIG. 1, panel 1). […]
This approach provides control over expression levels, avoiding the wide variation typically seen with random genomic integration or transient expression approaches. […] The mutant phenotype was measured as the percentage of cells with one or more EGFP puncta using automated high-content imaging analysis (see infra).
Development and validation of the high-content image analysis and assay performance under high-throughput screening conditions is presented in FIG. 9. […] Automated exposure times for each plate were determined by setting a target saturation of 25% in channel 1 in wells containing tetracycline-induced delta-E cells. Detected cells were gated according to nuclear area, length-to-width ratio, and perimeter-to-area ratio. […] EGFP fluorescence (Ch2: excitation 488 nm; emission 509 nm) was used for puncta detection. Automated exposure times for each plate were determined by setting a target saturation of 35% in channel 2 in wells containing induced delta-E cells. […]

The test system of series [3] is Flp-In T-REx 293 cells expressing delta-E Torsin1a. The series can be described thus: Cytotoxicity (cell count, cellular morphology) in the Torsin1a assay cell line. In kind it is cell-based, human. The note with it: at effective concentrations. The procedure:
as §1
Efficacy is calculated as the magnitude of the pathology correction relative to the mutant Torsin1a pathology. For example an efficacy=−100% would be equivalent to the WT TorsinA phenotype, and 0% would be equivalent to the Mutant TorsinA phenotype. CCv2 refers to the dose response Curve Class annotation, and AC refers to Active Concentration.

For series [4], the system named is homozygous DYT1 (delta-E Torsin1a) knock-in mice. The series can be described thus: Perinatal survival of homozygous DYT1 knock-in mice after in utero exposure. Format: in vivo, mouse. The procedure:
The findings above support a role for the eIF2-alpha signaling pathway in normalizing in vitro cellular phenotypes related to the DYT1 genotype. Next, the effect of targeting eIF2-alpha signaling on the deleterious consequences of the DYT1 TorsinA mutation was determined in vivo. Etiological mouse models of DYT1 dystonia have not had robust dystonic phenotypes. (Tanabe, L. M., et al., (2012) PloS One 7, e32245; Camargos, S. et al., (2008) Lancet. Neurol. 7, 207-15; Seibler, P. et al. (2008) Lancet. Neurol. 7, 380-1.) Nonetheless, another deleterious genotype-dependent effect of the mutation on the animal-neonatal lethality of homozygous delGAG knock-in mice—facilitated interrogation of the impact of eIF2-alpha targeting in vivo (FIG. 4a). (Seibler, P. et al. (2008) Lancet. Neurol. 7, 380-1; Goodchild, R. E., et al, (2005) Neuron 48, 923-32.)
Pairs of heterozygous delta-E Torsin1a knock-in breeders (courtesy of Dr. W. Dauer, University of Michigan) were randomly assigned to vehicle or salubrinal treatment groups. Starting 10 days after breeding cages were established, each female mouse was given a daily subcutaneous injection of vehicle or salubrinal at approximately 6 p.m. Cages were checked for new pups three times per day: morning (˜8 a.m.), early afternoon (˜2 p.m.), and during injections (˜6 p.m.). In order to minimize stress and the possibility of litter abandonment, mice with newborn pups were not given injections. Newborn pups were identified by marking limbs with a permanent laboratory marker, and tail samples were taken for genotyping at P0. At approximately P0.5, cages were checked again, and the status of each pup was recorded. If pups were first observed at the 8 am check, the 2 pm check was considered P0.5. If pups were first observed at the 2 pm or 6 pm checks, an additional check was performed at approximately midnight, and considered P0.5. Mortality was also tracked the following day, after which time identifying marks were predominately washed off or obscured by fur. […]

Entries after “also recorded” stand apart in the source; their conditions may differ. Peptide text beside a SMILES is read from it. * marks the point of attachment. Cbz = O=C(OCc1ccccc1)*

Regarding `CC(C)C[C@@H](C=O)NC(=O)[C@H](CC(C)C)NC(=O)[C@H](CC(C)C)NC(=O)OCc1ccccc1` [MG132] (Cbz-Leu-Leu-Leu-aldehyde), the “percentage of cells with punctate EGFP-Torsin1a signal” value in series [1] and in series [2] was “significantly increased” throughout.

Turning to `O=C(O)CCCc1ccccc1` [PBA, phenylbutyric acid], the “percentage of cells with punctate EGFP-Torsin1a signal” value in series [1] and in series [2] was “ameliorated the burden of cells with punctate pathology” each time.

In the case of `O=C(/C=C/c1ccccc1)NC(NC(=S)Nc1cccc2cccnc12)C(Cl)(Cl)Cl` (centres unmarked) [Salubrinal], in series [1] (Homo sapiens, Flp-In-T-REx-293, 48 hours, dose response, read-out: EC50 of normalization of delta-E Torsin1a localization), the EC50 turned out to be 2120 nM. Further, the “effect on delta-E Torsin1a localization (in words)” value in series [1] (dose response) was “robust dose-dependent normalization”. The “efficacy on delta-E Torsin1a localization” value in series [1] (normalized to vehicle delta-E (max) and WT (min)) is on record as 66.4%. Further, the “toxicity (cell count, cellular morphology; in words)” value in series [3] is “without modifying steady-state EGFP-Torsin1a levels or significant toxicity”. The “perinatal survival / mortality of homozygous delta-E/delta-E pups” value in series [4] (3.3 mg/kg subcutaneous daily to pregnant dams from about embryonic day 10 through delivery, vs vehicle) is recorded as “dramatically reduced the mortality; also recorded: improves perinatal survival”. In addition, the “mortality of wildtype or heterozygote pups” value in series [4] (3.3 mg/kg subcutaneous daily to pregnant dams, treatment vs control) is given as “no mortality differences”. Also, the “homozygous delta-E Torsin1a pups that survived through the second postnatal day” value in series [4] (in utero exposure, no vehicle-treated homozygous pups survived the first postnatal day) is reported as “two”.

Values taken from US11285142B2, “Compositions and methods for identifying and treating dystonia disorders” (DUKE UNIVERSITY, priority 2015, dated 2022).
